According to patent US11419865B2, “Method for inducing a sustained immune response” (Cytocom Inc., priority 2016, dated 2022):

Tests used:
[1] = test system: children with autism; assay: autism case reports
[2] = test system: Fibromyalgia patient; assay: Fibromyalgia and Epstein Barr case report; assay type: in vivo, human
Description: A person was diagnosed in 1998 Fibromyalgia and Epstein Barr, had to quit work, in pain and very depressed. Various treatments over the years for pain prescribed and other problems with the disease. […]

[3] = test system: ovarian cancer cells; assay: ovarian cancer cells treated with different dosing regimens of naltrexone; assay type: cell-based
Experimental: […]. They also prevent the adhesion of cancer cells to bone marrow stromal cells and thereby inhibit the enhanced secretion of migratory factors, such as interleukin (IL)-6, TNF-α, and vascular endothelial growth factor. In research experiments, ovarian cancer cells were treated with either water as the control or different dosing regimens of naltrexone to replicate high dose versus Immediate release dosing of naltrexone.

[4] = test system: Autoimmune Hepatitis-Type 1 patient; assay: Autoimmune Hepatitis-Type 1 case report; conditions: 4.5 mg nightly
[5] = test system: women with fibromyalgia; assay: randomized, double blind, placebo-controlled crossover study, 31 women with fibromyalgia; assay type: in vivo, human; conditions: 4.5 mg daily
Description: Thirty-one women with fibromyalgia participated in the randomized, double blind, placebo-controlled, and counterbalanced, crossover study. […]. An intensive longitudinal design was used to measure daily levels of pain. […]; P=0.016). […]. […] […]; P=0.016). […].

[6] = test system: women meeting criteria for fibromyalgia; assay: fibromyalgia study in ten women; assay type: in vivo, human; conditions: 4.5 mg
Description: […]. […] Baseline erythrocyte sedimentation rate predicted over 80% of the variance in drug response. […]. Which confirms the ability of Immediate release naltrexone to decree pain and inflammation.

[7] = test system: Shingles; assay: shingles case report; assay type: in vivo, human; conditions: 4.5 mg nightly from 2013; before 8 major outbreaks over 18 months
Experimental: A person diagnosed with Shingles in 2010 over 18 months had 8 major outbreaks, and was treated with acyclovir, and valacyclovir, as the outbreaks continued they prescribed Lidocaine patches and pain medications. […]

[8] = test system: children with autism; assay: autism, 155 children in 10 studies; assay type: in vivo, human
Description: 155 children participated in 10 studies; 27 received placebo. […].

[9] = test system: subjects with active Crohn's disease; assay: randomized placebo-controlled study, forty subjects with active Crohn's disease; assay type: in vivo, human
Description: Forty subjects with active Crohn's disease were enrolled in the study. […] Providers and patients were masked to treatment assignment. The primary outcome was the proportion of subjects in each arm with a 70-point decline in Crohn's Disease Activity Index score (CDAI). The secondary outcome included mucosal healing based upon colonoscopy appearance and histology. […].

[10] = test system: MS patients; assay: retrospective chart review of MS patients receiving LDN; assay type: in vivo, human
Description: This study investigated the safety, tolerability, and benefits (fatigue, reduction) of LDN in patients with MS. It reviewed the number of patients who stopped taking LDN and if there were specific reasons for stopping the LDN. The frequency and variety of side effects that were specific to LDN use are reported. […] 1, 2005 and May 31, 2012. There were 215 MS patients having exposure to LDN during the time of this study. […] In addition to the assessment we review Brain MRIs and Spinal Cord MRIs that were obtained as part of the clinical status of the patient and standard of care.
It reviewed the number of patients who stopped taking IMMEDIATE RELEASE NALTREXONE (LDN) and if there were specific reasons for stopping the IMMEDIATE RELEASE NALTREXONE (LDN). […] 1, 2005 and May 31, 2012. […]. In addition to the assessment we review Brain MRIs and Spinal Cord MRIs that were obtained as part of the clinical status of the patient and standard of care. […].

[11] = test system: CRPS patients

O=C1CC[C@@]2(O)[C@H]3Cc4ccc(O)c5c4[C@@]2(CCN3CC2CC2)[C@H]1O5 [Immediate release naltrexone, naltrexone]
initial effect, child, Autism ([1]; 3 mg): hyperactivity increased for the first three weeks | side effect, child, Autism ([1]; 5 ml at bedtime): a little constipation | decrease of pain level, person, Fibromyalgia and Epstein Barr ([2]; 0.5 mg in 2004 increased to 3 mg): 90% | antidepressant use, person, Fibromyalgia ([2]; 0.5 mg increased to 3 mg): no longer need to take anti-depressants | growth of cancer cells ([3]; Immediate release low or short-term dosing, control water): growth of cancer cells was slowed | growth of cancer cells ([3]; high dose of naltrexone): cancer cells were stimulated and grew faster | side effects, person, Autoimmune Hepatitis-Type 1 [4]: vivid dreams and mild indigestion in the first two weeks | fatigue or sleep [5]: not improved fatigue or sleep | tolerability and side effects [5]: rated equally tolerable as placebo, and no serious side effects were reported | mood ([5]; P=0.039): improved mood | general satisfaction with life ([5]; P=0.045): improved general satisfaction with life | participants meeting the criteria for response ([5]; placebo 11%, P=0.05): Thirty-two | Side effects (including insomnia and vivid dreams) [6]: rare, and described as minor and transient | mechanical and heat pain thresholds ([6]; laboratory visits): improved | outbreaks, person, Shingles [7]: have not had a single outbreak | children with statistically significant improvement in symptoms of irritability and hyperactivity ([8]; 98 of the 128 that received naltrexone): 77% | side effects and tolerability ([8]; in vivo): Side effects were mild and the drug was generally well tolerated | subjects with at least a 70-point decline in CDAI scores ([9]; 4.5-mg daily oral, placebo 40%, p=0.009): Eighty-eight | subjects achieving remission with a CDEIS score<6 ([9]; after 12 weeks, placebo 8%): 33% | subjects with endoscopic response (5-point decline in CDEIS) ([9]; after 12 weeks, placebo 28%, p=0.008): 78% | side effects ([9]; vs placebo): Fatigue was the only side effect reported that was significantly greater in subjects receiving placebo | quality of life over a long period of time ([10]; 215 MS patients exposed): improvement in quality of life | Brain MRI scans showing improvement ([10]; of 215 patients): 14 MRI scans | Brain MRI scans slightly worse ([10]; of 215 patients, new but inactive lesion(s)): 28 MRI scans | pain scores NRS (out of 10), person one, CRPS and EDS ([11]; 3 mg once a day, then 4.5 mg per day, from (7-10)/10): 3-5 | allodynia and sensitivity, person one, CRPS ([11]; 3 mg then 4.5 mg per day): decrease in allodynia, as well as a decrease in sensitivity to touch and temperature change | dystonia, initial treatment, person one, CRPS ([11]; 3 mg then 4.5 mg per day, before surgery): no effect on the dystonia | side effects, person three, CRPS ([11]; 4.5 mg per day): No side effects | average pain on the Numeric Rating Scale (NRS), person three, CRPS ([11]; 4.5 mg per day at night, before 8 to 10): 5 to 6 | requirements for intravenous ketamine infusions, person three, CRPS ([11]; 4.5 mg per day, by March of 2012, 6 week intervals): not as frequent | walking, person three, CRPS ([11]; 4.5 mg per day, cane used continuously since 2006): able to walk without a cane | dystonic spasms, person three, CRPS ([11]; 4.5 mg per day, within 2 months): dystonic spasms discontinued | post-operative pain NRS (out of 10), person one, CRPS ([11]; 3 weeks after resuming drug): 4-6 | side effects, person one, CRPS ([11]; 18 months): No side effects | fixed dystonia at cast removal, person one, CRPS ([11]; after ankle reinforcement surgery, on drug): remission of the leg's fixed dystonia | CRPS symptoms, person one ([11]; maintained for 18 months): CRPS symptoms have resolved completely
